One assay concerns NOD/LtJ T cells. The settings on record: in conjunction with SDF-1α; cited from earlier work.
The subject of a further assay is NOD mice. Particulars: inhibition of CXCR4 activity; cited from earlier work.
The next assay has as its system NOD CD3 T cell. The assay is described as follows: CD3 T cell adhesion to TNF-α activated islet microvascular endothelial cells. In kind it is cell-based, mouse. Particulars: SDF-1α 50 ng/ml; NOD compared to NON or C57 T cells; FIG. 2.
For the next assay, the system named is human CD3 T cell. The assay is described as follows: Shear mediated CD3 T cell detachment from fresh frozen human pancreas tissue. The settings on record: SDF-1α pretreatment, physiological shear stress. Type of assay: cell-based. The text has this: FIG. 3 is a line graph showing non-diabetic human CD3 T cell shear mediated detachment from fresh frozen human pancreas tissue with or without SDF-1 pretreatment.
FIG. 4 is a line graph showing T1D human CD3 T cell detachment from fresh frozen human pancreas tissue with or without SDF-1 pretreatment. 3 non-diabetic and 3 T1D subjects <1 yr diagnosis were used for T cell isolations. *p<0.01 w/o vs with SDF-1 treatment.
SDF-1α stimulates diabetogenic T cell chemorepulsion: a novel mechanism for potential therapeutic intervention in T1D. Chemokines may be differentially expressed in T1D, which play a role in leukocyte infiltration and adhesion. SDF-1α plays a key role in leukocyte adhesion by activating leukocyte integrins to higher affinity state that promotes their clustering. Due to this effect, SDF-1α has been viewed as a universally potent chemoattractant for leukocyte recruitment at low nanomolar concentrations. However, the inventors discovered novel mechanisms of autoimmune T cell chemorepulsion responses in autoimmune NOD/LtJ diabetic mice and in human T1D T cells at SDF-1α concentrations ranging from 1-100 nM.

The subject of the next assay is NOD/LtJ CD3 T cells. The assay is described as follows: Hydrodynamic shear detachment assay of T cells off TNF-α activated islet endothelial cells. Type of assay: cell-based, mouse. The text has this: T cell Robo-1 expression governs SDF-1 mediated detachment: The inventors examined whether Robo-1 immuno-neutralization could affect SDF-1α mediated chemorepulsion of NOD/LtJ CD3 T cells. FIGS. 5-7 show results from hydrodynamic shear detachment assays of T cells off of TNF-α activated islet endothelial cells. FIG. 5 illustration indicates molecular events. FIGS. 6 and 7 illustrate the effect of Robo-1 antibody on T cell detachment at low and higher shear rates (1 and 2.5 dyne/cm^2, respectively).

A further assay relates to NOD/LtJ CD3 T cell. The assay is described as follows: Shear mediated detachment from parallel plate flow chambers coated with recombinant Fc chimera ICAM-1 and VCAM-1. In kind it is cell-based, mouse. Particulars: SDF-1 (250 ng/ml) without Slit-2; FIG. 13. Here is the method:
FIG. 13 is a bar graph showing NOD CD3 T cell shear detachment at 1 dyne/cm^2 to adhesion molecules with SDF-1 (250 ng/ml) ±Slit-2 (20 μg/ml). *p<0.05 between indicated comparisons.
FIG. 14 is a bar graph showing NOD CD3 T cell shear detachment at 2.5 dyne/cm^2 to adhesion molecules with SDF-1 (250 ng/ml) ±Slit-2 (20 μg/ml). *p<0.05 between indicated comparisons.
Slit-2 peptide stimulates SDF-1 mediated NOD/LtJ T cell detachment: The inventors next examined whether Slit2 engagement of NOD/LtJ T cell Robo-1 could facilitate SDF-1 mediated chemorepulsion. To study this in an unambiguous way, recombinant Fc chimera endothelial cell adhesion molecules ICAM-1 and VCAM-1 was used to coat the surface of parallel plate flow chambers with or without SDF-1α to precisely control the density and presentation of adhesion molecules and chemokine for adhesive interactions.

Regarding “TITEIRLEQN [LRR-7, Slit-2 peptide containing LRR domain]”, the “attachment of NOD/LtJ T cells from recombinant endothelial cell adhesion molecules” value (from here on “attachment of NOD/LtJ T cells”) in the assay with NOD/LtJ T cells is “can inhibit attachment”.

For “LNSLVLYGN [LRR-9, Slit-2 peptide containing LRR domain]”, the “attachment of NOD/LtJ T cells” value in the assay on NOD/LtJ T cells was “can inhibit attachment”.

For “LRRIDLSNN [LRR-8, Slit-2 peptide containing LRR domain]”, the “attachment of NOD/LtJ T cells” value in the assay on NOD/LtJ T cells is listed as “can inhibit attachment”.

On to `c1cc(CN2CCCNCCNCCCNCC2)ccc1CN1CCCNCCNCCCNCC1` [AMD3100], for which, in the assay with NOD mice, the “adoptive transfer of diabetes” value is “exacerbated adoptive transfer of diabetes”.

Regarding “LQLLLLNAN [LRR-10, Slit-2 peptide containing LRR domain]”, the “attachment of NOD/LtJ T cells” value in the assay on NOD/LtJ T cells was “can inhibit attachment”.

For the compound “SDF-1α: chemokine, ligand of CXCR4, used to treat T cells or coat flow chambers (AYWKENKEQ)”, the “NOD CD3 T cell adhesion to TNF-α activated islet endothelial cells” value with NOD CD3 T cell was “selectively prevents NOD CD3 T cell adhesion”. In the assay with human CD3 T cell (T1D subjects, FIG. 4), the “human T1D T cell detachment from fresh human pancreas tissue” value is on record as “selectively stimulated human T1D T cell detachment”. For the same compound, the “T cell detachment of non-T1D subjects from fresh human pancreas tissue” value in the assay on human CD3 T cell (non-diabetic subjects, FIG. 3) is “not T cell detachment of non-T1D subjects”. Further, the “NOD T cell shear detachment” value was “stimulates NOD T cell shear detachment” in the assay on NOD/LtJ CD3 T cells (1 dyne/cm^2, FIG. 6) and “stimulates NOD T cell shear detachment” with NOD/LtJ CD3 T cells (2.5 dynes/cm^2, FIG. 7). The “NOD/LtJ CD3 T cell shear mediated detachment from ICAM-1 and VCAM-1” value with NOD/LtJ CD3 T cell was “even more resistant to shear detachment”.

As to “LNLLSLYDN [LRR-11, Slit-2 peptide containing LRR domain]”, the “attachment of NOD/LtJ T cells” value in the assay with NOD/LtJ T cells was “can inhibit attachment”.

(Values after patent US20200138966A1, “BIFUNCTIONAL SMALL PEPTIDE FOR AUTOIMMUNE DIABETES” (Board of Supervisors of Louisiana State University and …, priority 2017, published 2020).)
